Values quoted from earlier work in patent publication US20200138880A1, “BACTERIA-BASED GEL COMPOSITIONS FOR TOPICAL APPLICATIONS AND USES THEREOF” (PROBIOTICAL S.P.A., priority 2016, published 2020).

Details: well known; free melatonin not bound to globulins

melatonin concentration in saliva as share of its plasma levels: 24%-33%
Compound: COc1ccc2[nH]cc(CCNC(C)=O)c2c1 [melatonin]
